The text below walks through data of US20040198663A1, “Method of treating cardiac ischemia by using erythropoietin” (priority 2003, published 2004).

Structures are written as SMILES. Entries after “also recorded” stand apart in the source; their conditions may differ.

For the assay, the system named is hearts from normoxic rabbits. Put plainly: Mechanism studies: inhibitors/blockers perfused alone, then with erythropoietin, before global ischemia. Further details: species or system New Zealand White rabbit. The note with it: for effect of protein kinase inhibitor on the cardioprotective effect of erythropoietin: inhibitor 15 min alone, then 15 min with erythropoietin 1.0 U/ml prior to ischemia. The method, then: Resistance to myocardial ischemia. Hearts from infant rabbits were perfused with bicarbonate buffer, and biventricular function was monitored continuously throughout each experiment as described in Rafiee et al., Circulation 106:239-45 (2002). For concentration response studies, hearts were then perfused with erythropoietin (0.5-10.0 U/ml) for 15 minutes prior to 30 minutes ischemia and 35 minutes reperfusion. For mechanism studies with protein kinase inhibitors, potassium channel blockers or nitric oxide synthase inhibitors, hearts were perfused with drugs for 15 minutes alone followed by 15 minutes in combination with erythropoietin prior to ischemia. Hearts perfused with protein kinase inhibitors or potassium channel blockers alone in the absence of erythropoietin for 30 minutes prior to ischemia served as untreated controls for these studies. Recovery of post-ischemic left and right ventricular developed pressure was expressed as a percentage of its pre-drug, pre-ischemic value.
Hearts from normoxic rabbits were perfused with protein kinase inhibitors alone for 15 minutes and then combined with erythropoietin for a further 15 minute period prior to ischemia.
Hearts were perfused with KATP channel blockers alone for 15 minutes and then in combination with erythropoietin (1.0 U/ml) for another 15-minute period prior to ischemia.
Hearts were perfused with Paxilline (1 μM), a blocker of the KCa channel, alone for 15 minutes and then in combination with erythropoietin (1.0 U/ml) for another 15-minute period prior to ischemia.
Hearts from normoxic rabbits were perfused with nitric oxide synthase inhibitors combined with erythropoietin (1.0 U/ml) for 15 minutes prior to ischemia.

`CCCCCC(O)CCCC(=O)O` (centres unmarked) [5-hydroxydecanoate]: the “effect on the cardioprotective effect of erythropoietin” value (from here on “effect on the cardioprotective effect”) is, setting by setting: (5-hydroxydecanoate 300 μM, 15 min alone then 15 min with erythropoietin 1.0 U/ml) “partially”; (5-hydroxydecanoate 300 μM, 15 min alone then 15 min with erythropoietin 1.0 U/ml, listed as 5-HD) “abolished; also recorded: only partially prevented”.
For the compound `COc1ccc(Cl)cc1C(=O)NCCc1ccc(S(=O)(=O)NC(=O)NC2CCCCC2)cc1` [Glibenclamide], the “effect on the cardioprotective effect” value is reported as “completely abolished” (glibenclamide 3 μM, 15 min alone then 15 min with erythropoietin 1.0 U/ml) and “abolished; also recorded: completely prevented” (glibenclamide 3 μM, 15 min alone then 15 min with erythropoietin 1.0 U/ml, listed as glibenclamide).
`CNC(=S)NS(=O)(=O)c1cc(CCNC(=O)c2cc(Cl)ccc2OC)ccc1OC` [HMR 1098]: the “effect on the cardioprotective effect” value (HMR 1098 30 μM, 15 min alone then 15 min with erythropoietin 1.0 U/ml) is on record as “abolished; also recorded: completely prevented; also recorded: completely blocked”.
As to `COC(=O)[C@@H](N)CCCNC(=N)N[N+](=O)[O-]` [L-NAME], the “effect on the cardioprotective effect” value (L-NAME 200 μM combined with erythropoietin 1.0 U/ml for 15 minutes) is reported as “did not block”.
As to `CNC(=N)NCCC[C@H](N)C(=O)O` [L-NMA], the “effect on the cardioprotective effect” value (L-NMA 100 μM combined with erythropoietin 1.0 U/ml for 15 minutes) is “did not block”.
Take `COc1cccc(-c2cc(=O)c3ccccc3o2)c1N` [PD98059]: the “effect of protein kinase inhibitor on the cardioprotective effect of erythropoietin” value is “abolished”.
With `CC(C)(O)[C@H]1O[C@H]2CC[C@@]3(C)[C@@](O)(CC[C@H]4Cc5c([nH]c6ccccc56)[C@@]43C)C2=CC1=O` [Paxilline], for the setting “Paxilline 1 μM alone, no erythropoietin”, the “effect on untreated hearts” value is given as “no effect”.
`C[S+]([O-])c1ccc(-c2nc(-c3ccncc3)c(-c3ccc(F)cc3)[nH]2)cc1` (centres unmarked) [SB203580]: the “effect of protein kinase inhibitor on the cardioprotective effect of erythropoietin” value is given as “abolished”.
On the same count and under the same terms, next, `COc1ccc2c(c[n+](C)c3c4cc5c(cc4ccc23)OCO5)c1OC` [chelerythrine]: “abolished”.
